The target of assay [1] is Cyclin-dependent kinase 1 (Homo sapiens) (UniProt P06493). In words: Selectivity interaction (Kinase panel (KiNativ target engagement assay in Jurkat cells)) EUB0001635a CDK1. The class given is cell-based. To be noted: Selectivity number of off-targets 0.0, Selectivity number of targets 233.0, Source Knowledge https://www.sciencedirect.com/science/article/pii/S2451945619300674?via%3Dihub, at 1 µM.

For assay [2], the target named is T1, Serine/threonine-protein kinase TBK1 (Homo sapiens) (UniProt Q9UHD2).
T1 sequence (whole entry): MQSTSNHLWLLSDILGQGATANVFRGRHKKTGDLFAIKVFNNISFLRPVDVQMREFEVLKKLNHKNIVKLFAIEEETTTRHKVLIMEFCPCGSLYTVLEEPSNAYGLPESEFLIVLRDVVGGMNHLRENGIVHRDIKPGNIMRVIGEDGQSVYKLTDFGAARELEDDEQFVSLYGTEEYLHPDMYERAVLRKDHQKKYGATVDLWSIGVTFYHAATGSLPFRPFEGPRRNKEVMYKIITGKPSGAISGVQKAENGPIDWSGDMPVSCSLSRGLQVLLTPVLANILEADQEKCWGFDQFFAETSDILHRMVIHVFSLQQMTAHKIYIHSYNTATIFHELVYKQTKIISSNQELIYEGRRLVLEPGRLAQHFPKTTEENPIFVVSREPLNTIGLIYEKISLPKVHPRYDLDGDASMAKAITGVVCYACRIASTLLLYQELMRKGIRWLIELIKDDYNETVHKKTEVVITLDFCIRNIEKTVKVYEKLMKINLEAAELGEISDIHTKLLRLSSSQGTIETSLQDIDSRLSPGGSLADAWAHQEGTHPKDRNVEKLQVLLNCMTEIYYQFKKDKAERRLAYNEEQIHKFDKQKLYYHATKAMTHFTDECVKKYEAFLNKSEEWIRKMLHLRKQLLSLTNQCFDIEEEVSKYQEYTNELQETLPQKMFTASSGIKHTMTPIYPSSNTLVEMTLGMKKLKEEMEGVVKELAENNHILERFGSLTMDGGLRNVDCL
In words: Selectivity interaction (KinomeScan (DiscoverX)) EUB0000607a TBK1. To be noted: at 10 µM.

For assay [3], the target named is Insulin-like growth factor 1 receptor (Homo sapiens, UniProt P08069). In words: Selectivity interaction (KinomeScan (DiscoverX)) EUB0000666a IGF1R. To be noted: at 10 µM.
Chain of Insulin-like growth factor 1 receptor (P08069 31-736 limits assumed): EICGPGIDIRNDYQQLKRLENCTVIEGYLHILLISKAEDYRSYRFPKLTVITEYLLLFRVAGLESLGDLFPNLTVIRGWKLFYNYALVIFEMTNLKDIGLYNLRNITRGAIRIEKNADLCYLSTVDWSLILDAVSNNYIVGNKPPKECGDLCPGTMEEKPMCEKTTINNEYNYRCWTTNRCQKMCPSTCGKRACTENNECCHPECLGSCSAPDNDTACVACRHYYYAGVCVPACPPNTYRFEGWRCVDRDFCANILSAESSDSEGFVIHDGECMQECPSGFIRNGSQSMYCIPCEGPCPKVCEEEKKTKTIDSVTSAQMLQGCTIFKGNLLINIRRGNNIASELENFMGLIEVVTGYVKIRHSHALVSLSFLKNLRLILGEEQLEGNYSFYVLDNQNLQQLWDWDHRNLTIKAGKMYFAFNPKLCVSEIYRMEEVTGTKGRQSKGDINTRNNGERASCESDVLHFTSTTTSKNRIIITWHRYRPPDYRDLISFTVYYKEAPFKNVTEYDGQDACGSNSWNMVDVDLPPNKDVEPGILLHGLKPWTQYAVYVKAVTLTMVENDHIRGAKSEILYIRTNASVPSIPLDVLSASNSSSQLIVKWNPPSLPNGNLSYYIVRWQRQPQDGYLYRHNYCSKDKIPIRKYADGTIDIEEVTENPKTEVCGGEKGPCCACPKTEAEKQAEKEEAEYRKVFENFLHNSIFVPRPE
Chain of Insulin-like growth factor 1 receptor (P08069 741-1367 limits assumed): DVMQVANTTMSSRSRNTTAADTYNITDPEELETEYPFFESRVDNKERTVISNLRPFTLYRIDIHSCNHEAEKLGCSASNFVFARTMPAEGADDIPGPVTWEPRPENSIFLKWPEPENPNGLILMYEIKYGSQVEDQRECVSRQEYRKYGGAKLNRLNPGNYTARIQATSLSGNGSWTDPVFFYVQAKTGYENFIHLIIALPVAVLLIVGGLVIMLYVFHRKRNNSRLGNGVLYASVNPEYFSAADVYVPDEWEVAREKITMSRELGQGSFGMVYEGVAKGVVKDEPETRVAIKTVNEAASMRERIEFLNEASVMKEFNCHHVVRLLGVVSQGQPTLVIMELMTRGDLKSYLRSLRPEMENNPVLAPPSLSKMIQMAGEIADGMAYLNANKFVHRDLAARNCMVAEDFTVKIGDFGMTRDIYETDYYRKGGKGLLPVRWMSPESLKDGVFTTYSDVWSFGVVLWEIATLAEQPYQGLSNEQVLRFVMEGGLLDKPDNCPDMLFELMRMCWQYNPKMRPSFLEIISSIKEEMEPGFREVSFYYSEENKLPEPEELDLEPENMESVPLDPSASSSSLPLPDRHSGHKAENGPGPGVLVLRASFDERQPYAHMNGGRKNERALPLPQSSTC
Assay [4] concerns the target Serine/threonine-protein kinase Nek7 (Homo sapiens) (UniProt Q8TDX7). In words: Selectivity interaction (KinomeScan (DiscoverX)) EUB0000666a NEK7. To be noted: at 10 µM.
In assay [5] the target is Mitogen-activated protein kinase 1 (Homo sapiens, UniProt P28482). In words: Selectivity interaction (KinomeScan (DiscoverX)) EUB0000229b MAPK1. To be noted: at 10 µM.
Chain of Mitogen-activated protein kinase 1 (P28482 whole entry): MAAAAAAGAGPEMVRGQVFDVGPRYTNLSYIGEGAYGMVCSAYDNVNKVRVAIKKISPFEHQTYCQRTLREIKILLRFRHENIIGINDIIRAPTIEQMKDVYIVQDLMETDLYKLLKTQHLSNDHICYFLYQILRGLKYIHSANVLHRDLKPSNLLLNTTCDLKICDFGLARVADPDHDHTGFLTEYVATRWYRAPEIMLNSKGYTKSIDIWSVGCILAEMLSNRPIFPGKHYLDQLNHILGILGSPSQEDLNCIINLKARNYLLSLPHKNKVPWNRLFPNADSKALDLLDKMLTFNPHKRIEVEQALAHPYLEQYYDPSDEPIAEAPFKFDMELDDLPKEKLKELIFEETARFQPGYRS
In assay [6] the target is T2, NUAK family SNF1-like kinase 1 (Homo sapiens) (UniProt O60285).
T2 sequence (whole entry): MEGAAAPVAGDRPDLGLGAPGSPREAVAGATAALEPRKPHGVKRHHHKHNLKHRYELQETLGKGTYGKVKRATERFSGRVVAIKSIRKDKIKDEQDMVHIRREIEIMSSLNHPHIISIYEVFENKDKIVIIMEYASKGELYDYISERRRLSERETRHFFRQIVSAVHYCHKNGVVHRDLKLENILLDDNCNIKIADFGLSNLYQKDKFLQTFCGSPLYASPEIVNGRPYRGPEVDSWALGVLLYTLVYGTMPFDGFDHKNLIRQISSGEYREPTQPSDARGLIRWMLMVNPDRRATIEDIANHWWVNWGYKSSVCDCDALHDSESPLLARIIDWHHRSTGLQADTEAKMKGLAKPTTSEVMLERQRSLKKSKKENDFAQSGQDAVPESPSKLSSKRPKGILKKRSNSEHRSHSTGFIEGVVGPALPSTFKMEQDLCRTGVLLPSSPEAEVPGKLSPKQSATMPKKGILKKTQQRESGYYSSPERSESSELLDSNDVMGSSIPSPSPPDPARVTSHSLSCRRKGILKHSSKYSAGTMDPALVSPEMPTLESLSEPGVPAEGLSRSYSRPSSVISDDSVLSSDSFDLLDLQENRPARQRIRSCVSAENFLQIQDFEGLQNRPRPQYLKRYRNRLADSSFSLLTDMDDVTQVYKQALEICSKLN
In words: Selectivity interaction (KinomeScan (DiscoverX)) EUB0000655a NUAK1. To be noted: at 10 µM.

Assay [7] concerns the target Ribosomal protein S6 kinase alpha-4 (Homo sapiens) (UniProt O75676). In words: Selectivity interaction (KinomeScan (DiscoverX)) EUB0000695a RPS6KA4. To be noted: at 100 nM.
Assay [8] addresses T3, G protein-coupled receptor kinase 3 (Homo sapiens) (UniProt P35626).
T3 sequence (whole entry): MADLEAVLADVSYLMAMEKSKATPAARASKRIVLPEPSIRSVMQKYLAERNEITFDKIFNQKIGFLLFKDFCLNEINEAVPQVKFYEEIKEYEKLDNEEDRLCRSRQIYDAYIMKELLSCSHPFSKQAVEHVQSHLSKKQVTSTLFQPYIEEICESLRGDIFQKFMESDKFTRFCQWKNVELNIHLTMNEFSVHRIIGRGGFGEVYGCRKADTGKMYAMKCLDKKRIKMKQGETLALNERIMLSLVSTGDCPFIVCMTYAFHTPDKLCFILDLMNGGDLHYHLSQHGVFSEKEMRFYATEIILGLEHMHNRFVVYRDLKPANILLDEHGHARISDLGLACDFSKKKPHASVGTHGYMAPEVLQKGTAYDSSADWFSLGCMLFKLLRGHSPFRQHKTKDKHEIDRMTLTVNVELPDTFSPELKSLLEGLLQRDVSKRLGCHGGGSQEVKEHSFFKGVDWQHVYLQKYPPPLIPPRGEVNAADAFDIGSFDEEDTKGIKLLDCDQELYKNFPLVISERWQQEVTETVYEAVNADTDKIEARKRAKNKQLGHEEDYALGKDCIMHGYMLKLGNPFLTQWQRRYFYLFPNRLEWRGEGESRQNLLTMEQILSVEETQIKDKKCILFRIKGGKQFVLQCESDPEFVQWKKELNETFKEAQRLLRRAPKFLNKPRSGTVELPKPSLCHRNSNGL
In words: Selectivity interaction (ProQinase) EUB0000171b ADRBK2.

In assay [9] the target is Protein-tyrosine kinase 2-beta (Homo sapiens) (UniProt Q14289). In words: Selectivity interaction (KinomeScan (DiscoverX)) EUB0000092b PTK2B. To be noted: at 10 µM.
Chain of Protein-tyrosine kinase 2-beta (Homo sapiens) (Q14289 whole entry, looked up): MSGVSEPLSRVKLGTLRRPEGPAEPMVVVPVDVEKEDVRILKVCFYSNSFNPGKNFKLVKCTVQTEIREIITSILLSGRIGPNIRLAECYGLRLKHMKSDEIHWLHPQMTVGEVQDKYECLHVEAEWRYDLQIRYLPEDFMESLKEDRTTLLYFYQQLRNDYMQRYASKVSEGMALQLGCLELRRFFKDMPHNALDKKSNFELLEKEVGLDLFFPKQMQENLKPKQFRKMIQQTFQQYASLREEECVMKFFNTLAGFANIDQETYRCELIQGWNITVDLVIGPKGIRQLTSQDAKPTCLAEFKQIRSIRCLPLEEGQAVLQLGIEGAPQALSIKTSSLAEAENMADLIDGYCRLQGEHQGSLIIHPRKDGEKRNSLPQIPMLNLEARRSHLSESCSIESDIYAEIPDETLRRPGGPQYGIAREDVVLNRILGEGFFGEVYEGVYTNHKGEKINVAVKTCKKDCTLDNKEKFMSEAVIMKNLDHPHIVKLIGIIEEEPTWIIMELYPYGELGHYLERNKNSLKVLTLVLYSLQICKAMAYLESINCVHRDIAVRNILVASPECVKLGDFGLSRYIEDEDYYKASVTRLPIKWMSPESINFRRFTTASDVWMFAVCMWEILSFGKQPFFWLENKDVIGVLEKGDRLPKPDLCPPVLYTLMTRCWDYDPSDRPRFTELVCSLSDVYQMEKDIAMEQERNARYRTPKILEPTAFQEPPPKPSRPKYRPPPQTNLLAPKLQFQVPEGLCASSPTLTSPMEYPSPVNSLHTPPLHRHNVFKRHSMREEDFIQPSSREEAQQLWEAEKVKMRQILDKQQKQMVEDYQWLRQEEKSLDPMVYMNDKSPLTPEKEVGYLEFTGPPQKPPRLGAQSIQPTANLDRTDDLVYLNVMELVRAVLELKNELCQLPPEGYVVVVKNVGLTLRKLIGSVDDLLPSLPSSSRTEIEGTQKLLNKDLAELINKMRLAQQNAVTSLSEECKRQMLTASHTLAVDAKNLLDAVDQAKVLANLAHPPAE

Chain of Serine/threonine-protein kinase Nek7 (Homo sapiens) (Q8TDX7 whole entry, looked up): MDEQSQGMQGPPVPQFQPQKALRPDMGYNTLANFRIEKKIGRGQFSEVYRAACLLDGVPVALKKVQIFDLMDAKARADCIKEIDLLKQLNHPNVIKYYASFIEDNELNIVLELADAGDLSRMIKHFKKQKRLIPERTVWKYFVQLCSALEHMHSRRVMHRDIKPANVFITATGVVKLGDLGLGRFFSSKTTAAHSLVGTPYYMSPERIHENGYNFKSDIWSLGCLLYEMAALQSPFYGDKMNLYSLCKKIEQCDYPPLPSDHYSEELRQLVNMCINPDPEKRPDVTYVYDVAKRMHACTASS
Chain of Cyclin-dependent kinase 1 (Homo sapiens) (P06493 whole entry, looked up): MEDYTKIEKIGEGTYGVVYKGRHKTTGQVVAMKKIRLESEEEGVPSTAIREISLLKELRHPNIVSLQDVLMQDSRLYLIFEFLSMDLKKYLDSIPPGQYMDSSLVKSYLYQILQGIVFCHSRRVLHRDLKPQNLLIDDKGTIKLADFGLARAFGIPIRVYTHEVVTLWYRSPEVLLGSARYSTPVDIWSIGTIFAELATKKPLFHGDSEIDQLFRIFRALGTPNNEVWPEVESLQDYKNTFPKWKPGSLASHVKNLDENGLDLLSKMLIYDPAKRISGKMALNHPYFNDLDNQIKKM
Chain of Ribosomal protein S6 kinase alpha-4 (Homo sapiens) (O75676 whole entry, looked up): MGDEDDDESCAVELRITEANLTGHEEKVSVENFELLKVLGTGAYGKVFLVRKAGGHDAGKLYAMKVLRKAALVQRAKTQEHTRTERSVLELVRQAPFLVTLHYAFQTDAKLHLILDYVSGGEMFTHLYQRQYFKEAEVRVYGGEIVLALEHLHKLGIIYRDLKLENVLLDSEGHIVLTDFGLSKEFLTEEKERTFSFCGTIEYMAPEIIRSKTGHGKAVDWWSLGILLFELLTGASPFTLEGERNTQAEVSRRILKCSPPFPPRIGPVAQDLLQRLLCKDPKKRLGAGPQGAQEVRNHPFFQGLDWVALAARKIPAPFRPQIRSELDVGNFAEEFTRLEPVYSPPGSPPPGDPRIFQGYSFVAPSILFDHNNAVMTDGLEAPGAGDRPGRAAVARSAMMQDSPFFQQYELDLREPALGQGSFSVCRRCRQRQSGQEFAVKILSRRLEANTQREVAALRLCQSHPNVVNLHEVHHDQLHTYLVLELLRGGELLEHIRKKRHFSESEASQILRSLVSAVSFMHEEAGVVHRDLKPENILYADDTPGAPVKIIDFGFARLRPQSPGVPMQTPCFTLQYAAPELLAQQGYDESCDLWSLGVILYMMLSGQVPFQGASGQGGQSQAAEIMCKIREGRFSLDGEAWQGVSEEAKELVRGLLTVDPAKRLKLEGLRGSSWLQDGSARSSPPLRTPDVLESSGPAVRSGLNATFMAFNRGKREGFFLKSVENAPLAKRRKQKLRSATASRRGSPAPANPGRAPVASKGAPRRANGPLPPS

In the case of `C=CC(=O)Nc1ccc(C(=O)Nc2[nH]nc3c2CN(C(=O)N[C@H](CN(C)C)c2ccccc2)C3(C)C)cc1`, the % of engagement in [1] is -3.1%.
Regarding `CNC(=O)Nc1ccc(-c2nc(N3CC4CCC(C3)O4)c3cnn(C4CCC5(CC4)OCCO5)c3n2)cc1`, in assay [2], the % of control turned out to be 82%.
For the compound `O=C(NOC[C@H](O)CO)c1ccc(F)c(F)c1Nc1ccc(I)cc1F`, the % of control in assay [3] was determined as 87%; in assay [4], 95%.
Turning to `COc1cc(N(C)c2ccnc3ccc(C(F)(F)F)cc23)cc(OC)c1OC`, in assay [5], the % binding was determined as 97%.
In assay [6], `CN(C)CCOc1ccc(-c2nc(-c3ccncc3)c(-c3ccc4c(c3)CC/C4=N\O)[nH]2)cc1` returned a % of control of 100%.
Regarding `Cc1cc(F)c(C(=O)Nc2cccc(-c3nncn3C(C)C)n2)cc1-n1cnc(C2CC2)c1`, the % of control in assay [7] came to 69%.
In the case of `C=CC(=O)Nc1cccc(C(=O)Nc2ccc(Nc3cc(-c4[nH]c(SC)nc4C)ccn3)cc2)c1`, the % of control in [8] (at 1 µM) came out at 94%; in [8] (at 5 µM), 95%.
For the compound `CCC(=O)N1CCN(c2ccc(-n3c(=O)ccc4cnc5ccc(-c6cnc7ccccc7c6)cc5c43)cc2C(F)(F)F)CC1`, the % of control in [9] amounted to 100%.

The values above are taken from ChEMBL document CHEMBL5465560, “Selectivity Literature for EUbOPEN Chemogenomic Library” (2024).
